Our source for the relative viability values is the supplement of paper PMC10307832.

Experiment in all cases: relative viability (nuclei count vs DMSO), 5 days (fraction); higher = more cells survive
Compound in the assay “Zosuquidar + Pictilisib”: O[C@@H](COc1cccc2ncccc12)CN1CCN([C@@H]2c3ccccc3[C@@H]3[C@H](c4ccccc42)C3(F)F)CC1 [Zosuquidar] + CS(=O)(=O)N1CCN(Cc2cc3nc(-c4cccc5[nH]ncc45)nc(N4CCOCC4)c3s2)CC1 [Pictilisib] (partner 1 µM)
Put shortly:
(§1)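 One day after seeding in 1536-well plates, lung cancer cell lines were dosed by pin tool. Dosing was either single-drug or a fixed anchor-drug dose plus five library-drug doses (not always all listed) in √10 steps. After 5 days, nuclei were stained in one fix-and-stain step and counted on 4× images, and relative viability is the nuclei count of treated wells over that of vehicle wells, given as the median of duplicate plates.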

Compound in the assay “Zosuquidar + Vorinostat”: O[C@@H](COc1cccc2ncccc12)CN1CCN([C@@H]2c3ccccc3[C@@H]3[C@H](c4ccccc42)C3(F)F)CC1 [Zosuquidar] + O=C(CCCCCCC(=O)Nc1ccccc1)NO [Vorinostat] (partner 1 µM)
In short, it runs like this: as §1

Compound in assay [1]: COc1cc2nccc(Oc3ccc(NC(=O)C4(C(=O)Nc5ccc(F)cc5)CC4)cc3)c2cc1OC [Cabozantinib] + O=C(CCCCCCC(=O)Nc1ccccc1)NO [Vorinostat] (partner 1 µM)
Put shortly: as §1

Compound in the assay “Kobe2602 + Luminespib”: C1=CC(=CC=C1NC(=S)NNC2=C(C=C(C=C2[N+](=O)[O-])C(F)(F)F)[N+](=O)[O-])F [Kobe2602] + CCNC(=O)c1noc(-c2cc(C(C)C)c(O)cc2O)c1-c1ccc(CN2CCOCC2)cc1 [Luminespib] (partner 0.01 µM)
In short, it runs like this: as §1

On to 201T, for which the relative viability in the assay with Zosuquidar + Pictilisib (first compound 0.01 µM) is 0.659; in the assay with Zosuquidar + Pictilisib (first compound 0.03162 µM), 0.683; in the assay with Zosuquidar + Pictilisib (first compound 0.1 µM), 0.573; with Zosuquidar + Pictilisib (first compound 0.3162 µM), 0.677; in the assay with Zosuquidar + Pictilisib (first compound 1 µM), 0.665; in the assay with Zosuquidar + Vorinostat (first compound 0.01 µM) it was 0.886. Further, the relative viability with Zosuquidar + Vorinostat (first compound 0.03162 µM) was 0.942; with Zosuquidar + Vorinostat (first compound 0.1 µM) it was 0.799; in the assay with Zosuquidar + Vorinostat (first compound 0.3162 µM), 0.997; with Zosuquidar + Vorinostat (first compound 1 µM), 0.962; in assay [1] (first compound 0.02 µM), 0.77; in assay [1] (first compound 0.06325 µM), 1.03. Further, the relative viability was determined as 0.962 in assay [1] (first compound 0.2 µM); 0.932 in assay [1] (first compound 0.6325 µM); 0.969 in assay [1] (first compound 2 µM); 1.02 in the assay with Kobe2602 + Luminespib (first compound 0.2 µM); 1.05 with Kobe2602 + Luminespib (first compound 0.6325 µM); 0.993 with Kobe2602 + Luminespib (first compound 2 µM). The relative viability with Kobe2602 + Luminespib (first compound 6.325 µM) was 1.14; with Kobe2602 + Luminespib (first compound 20 µM), 0.966.

In the case of A549, the relative viability is 0.532 in the assay with Zosuquidar + Pictilisib (first compound 0.01 µM); 0.497 with Zosuquidar + Pictilisib (first compound 0.03162 µM); 0.494 in the assay with Zosuquidar + Pictilisib (first compound 0.1 µM); 0.487 with Zosuquidar + Pictilisib (first compound 0.3162 µM); 0.496 in the assay with Zosuquidar + Pictilisib (first compound 1 µM).

As for A-427, the relative viability stood at 0.665 with Zosuquidar + Pictilisib (first compound 0.01 µM); 0.538 with Zosuquidar + Pictilisib (first compound 0.03162 µM); 0.567 in the assay with Zosuquidar + Pictilisib (first compound 0.1 µM); 0.91 with Zosuquidar + Pictilisib (first compound 0.3162 µM); 0.77 with Zosuquidar + Pictilisib (first compound 1 µM); 0.86 with Zosuquidar + Vorinostat (first compound 0.01 µM). Further, the relative viability with Zosuquidar + Vorinostat (first compound 0.03162 µM) was found to be 0.853; with Zosuquidar + Vorinostat (first compound 0.1 µM), 0.836; with Zosuquidar + Vorinostat (first compound 0.3162 µM), 0.94; with Zosuquidar + Vorinostat (first compound 1 µM), 0.511; in assay [1] (first compound 0.02 µM), 0.871; in assay [1] (first compound 0.06325 µM), 0.865. Further, the relative viability in assay [1] (first compound 0.2 µM) was determined as 0.902; in assay [1] (first compound 0.6325 µM), 0.841; in assay [1] (first compound 2 µM) it was 0.951; with Kobe2602 + Luminespib (first compound 0.2 µM), 0.943; with Kobe2602 + Luminespib (first compound 0.6325 µM), 0.872; with Kobe2602 + Luminespib (first compound 2 µM) it was 0.85. The figures for the relative viability with Kobe2602 + Luminespib (first compound 6.325 µM) and in the assay with Kobe2602 + Luminespib (first compound 20 µM) were 0.893 and 0.911, respectively.

As for ABC-1, the relative viability with Zosuquidar + Pictilisib (first compound 0.01 µM) was 0.756; in the assay with Zosuquidar + Pictilisib (first compound 0.03162 µM), 0.661; with Zosuquidar + Pictilisib (first compound 0.1 µM), 0.724; with Zosuquidar + Pictilisib (first compound 0.3162 µM), 0.743; with Zosuquidar + Pictilisib (first compound 1 µM) it was 0.679; with Zosuquidar + Vorinostat (first compound 0.01 µM), 1.17. Also, the relative viability came out at 1.04 with Zosuquidar + Vorinostat (first compound 0.03162 µM); 1 with Zosuquidar + Vorinostat (first compound 0.1 µM); 1.13 in the assay with Zosuquidar + Vorinostat (first compound 0.3162 µM); 0.81 in the assay with Zosuquidar + Vorinostat (first compound 1 µM); 1.24 in assay [1] (first compound 0.06325 µM); 0.99 in assay [1] (first compound 0.2 µM). Also, the relative viability came to 1.02 in assay [1] (first compound 0.6325 µM); 0.913 in assay [1] (first compound 2 µM); 0.785 in the assay with Kobe2602 + Luminespib (first compound 0.2 µM); 0.851 with Kobe2602 + Luminespib (first compound 0.6325 µM); 0.494 with Kobe2602 + Luminespib (first compound 6.325 µM); 0.887 with Kobe2602 + Luminespib (first compound 20 µM).

Consider BEN, for which the relative viability in the assay with Zosuquidar + Pictilisib (first compound 0.01 µM) was 0.665; with Zosuquidar + Pictilisib (first compound 0.03162 µM), 0.606; with Zosuquidar + Pictilisib (first compound 0.1 µM), 0.482; with Zosuquidar + Pictilisib (first compound 0.3162 µM), 0.534; in the assay with Zosuquidar + Pictilisib (first compound 1 µM) it was 0.515; in the assay with Zosuquidar + Vorinostat (first compound 0.01 µM) it was 0.548. Moreover, the relative viability in the assay with Zosuquidar + Vorinostat (first compound 0.03162 µM) is 0.579; with Zosuquidar + Vorinostat (first compound 0.1 µM), 0.574; in the assay with Zosuquidar + Vorinostat (first compound 0.3162 µM), 0.662; with Zosuquidar + Vorinostat (first compound 1 µM), 0.553; in assay [1] (first compound 0.02 µM), 0.562; in assay [1] (first compound 0.06325 µM), 0.567. Besides, the relative viability in assay [1] (first compound 0.2 µM) was found to be 0.565; in assay [1] (first compound 0.6325 µM), 0.554; in assay [1] (first compound 2 µM), 0.518; with Kobe2602 + Luminespib (first compound 0.2 µM), 0.507; in the assay with Kobe2602 + Luminespib (first compound 0.6325 µM), 0.576; with Kobe2602 + Luminespib (first compound 2 µM), 0.386. The relative viability with Kobe2602 + Luminespib (first compound 6.325 µM) was found to be 0.481; with Kobe2602 + Luminespib (first compound 20 µM), 0.436.

With CAL-12T, the relative viability was 0.349 with Zosuquidar + Pictilisib (first compound 0.01 µM); 0.494 with Zosuquidar + Pictilisib (first compound 0.03162 µM); 0.533 with Zosuquidar + Pictilisib (first compound 0.3162 µM); 0.423 in the assay with Zosuquidar + Pictilisib (first compound 1 µM); 0.843 in the assay with Zosuquidar + Vorinostat (first compound 0.01 µM); 0.692 in the assay with Zosuquidar + Vorinostat (first compound 0.03162 µM). Moreover, the relative viability in the assay with Zosuquidar + Vorinostat (first compound 0.1 µM) was found to be 0.77; with Zosuquidar + Vorinostat (first compound 0.3162 µM) it was 0.813; with Zosuquidar + Vorinostat (first compound 1 µM), 0.845; in assay [1] (first compound 0.02 µM), 0.849; in assay [1] (first compound 0.06325 µM), 0.673; in assay [1] (first compound 0.2 µM) it was 0.801. For the same cell line, the relative viability in assay [1] (first compound 0.6325 µM) was found to be 0.822; in assay [1] (first compound 2 µM), 0.833; with Kobe2602 + Luminespib (first compound 0.2 µM) it was 0.358; with Kobe2602 + Luminespib (first compound 0.6325 µM), 1.01; with Kobe2602 + Luminespib (first compound 2 µM) it was 0.241; with Kobe2602 + Luminespib (first compound 6.325 µM) it was 0.362. Also, the relative viability with Kobe2602 + Luminespib (first compound 20 µM) stood at 0.233.

COR-L23: the relative viability with Zosuquidar + Pictilisib (first compound 0.01 µM) amounted to 0.76; with Zosuquidar + Pictilisib (first compound 0.03162 µM), 0.658; with Zosuquidar + Pictilisib (first compound 0.1 µM) it was 0.679; with Zosuquidar + Pictilisib (first compound 0.3162 µM), 1.01; in the assay with Zosuquidar + Pictilisib (first compound 1 µM) it was 0.889; with Zosuquidar + Vorinostat (first compound 0.01 µM), 0.493. The relative viability was 0.515 with Zosuquidar + Vorinostat (first compound 0.03162 µM); 0.472 with Zosuquidar + Vorinostat (first compound 0.1 µM); 0.517 with Zosuquidar + Vorinostat (first compound 0.3162 µM); 0.509 with Zosuquidar + Vorinostat (first compound 1 µM); 0.367 in assay [1] (first compound 0.02 µM); 0.692 in assay [1] (first compound 0.06325 µM). Besides, the relative viability worked out at 0.431 in assay [1] (first compound 0.2 µM); 0.407 in assay [1] (first compound 0.6325 µM); 0.417 in assay [1] (first compound 2 µM); 0.685 with Kobe2602 + Luminespib (first compound 0.2 µM); 0.64 with Kobe2602 + Luminespib (first compound 0.6325 µM); 0.537 in the assay with Kobe2602 + Luminespib (first compound 2 µM). In addition, the figures for the relative viability with Kobe2602 + Luminespib (first compound 6.325 µM) and with Kobe2602 + Luminespib (first compound 20 µM) were 0.648 and 0.684, respectively.

For COR-L 105, the relative viability was found to be 0.404 with Zosuquidar + Pictilisib (first compound 0.01 µM); 0.383 in the assay with Zosuquidar + Pictilisib (first compound 0.03162 µM); 0.418 with Zosuquidar + Pictilisib (first compound 0.1 µM); 0.492 with Zosuquidar + Pictilisib (first compound 0.3162 µM); 0.351 with Zosuquidar + Pictilisib (first compound 1 µM); 0.961 with Zosuquidar + Vorinostat (first compound 0.01 µM). The relative viability was determined as 0.826 with Zosuquidar + Vorinostat (first compound 0.03162 µM); 0.777 with Zosuquidar + Vorinostat (first compound 0.1 µM); 0.891 with Zosuquidar + Vorinostat (first compound 0.3162 µM); 0.875 with Zosuquidar + Vorinostat (first compound 1 µM); 0.847 in assay [1] (first compound 0.02 µM); 1.05 in assay [1] (first compound 0.06325 µM). Further, the relative viability in assay [1] (first compound 0.2 µM) stood at 0.734; in assay [1] (first compound 0.6325 µM), 0.839; in assay [1] (first compound 2 µM), 0.89; with Kobe2602 + Luminespib (first compound 0.2 µM), 0.591; with Kobe2602 + Luminespib (first compound 0.6325 µM) it was 0.896; with Kobe2602 + Luminespib (first compound 2 µM), 0.848. The relative viability came to 0.643 in the assay with Kobe2602 + Luminespib (first compound 6.325 µM) and 0.719 with Kobe2602 + Luminespib (first compound 20 µM).
